{"source": "patent US9072901B2", "about": "“Cardiac neuromodulation and methods of using same” (The Board of Regents of the University of Oklahoma, priority 2001, dated 2015)", "key": {"[1]": {"tested_on": "C1-C2 spinal neurons", "test": "Vagal inhibition of T3 neuron after ibotenic acid on dorsal C1-C2 spinal cord", "assay_type": "in vivo", "settings": "approximately 20 min after ibotenic acid was placed on the spinal cord", "description": "FIGS. […] Electrical stimulation of the left cervical vagus (A: LCVS; {30 V, 0.1 ms} ipsilateral to the cell) right cervical vagus (B; RCVS; contralateral) at different frequencies. Vagal stimulation reduced the discharge rate of the evoked response to noxious stimulation of the cardiac afferents intrapericardial injections of bradykinin (C). IA; ibotenic acid. The short horizontal bars represent the period of vagal stimulation, the long horizontal bar represents the bradykinin injection and the numbers indicate the frequencies tested.\nChemical disruption of the C1-C2 spinal neurons alters the effects of stimulation of the cardiac afferent input on the regulation of information processing in the cervical and thoracic spinal cord. In order to produce chemical disruption of cells, ibotenic acid was chosen because it is an excitotoxin that has been used effectively in previous studies. Ibotenic acid is a structurally rigid glutamate analog that destroys neuronal perikarya, but spares axons and non-neuronal cells. After ibotenic acid is injected into a nucleus or applied to the surface of the spinal cord, the cells in the region are initially excited and then enter a phase of depolarization block. […] The advantage of this methodology is that the neuronal relays in the C1-C2 segments can be disrupted without interrupting the axons that pass through this region. […]"}, "[2]": {"tested_on": "C1 dorsal horn cells", "test": "Annexin fluorescence histochemistry after ibotenic acid pledget on C1-C2 spinal segments", "assay_type": "in vivo, rats", "settings": "pledget on C1-C2 for 2 hrs, after 14-16 hrs", "description": "After 14-16 hrs, rats were perfused with fixative and the medulla, C1-2, C3-5 segments were processed for annexin fluorescence histochemistry. Photomicrographs are from the C1 dorsal horn and the gray matter is outlined. […] White arrows point to unlabeled (black) cells in the dorsal horn. […] Annexin binding indicates cells with energy impairment and/or undergoing apotosis. Annexin belongs to a family of proteins that bind acidic phospholipids, particularly phosphotidylserine (PS). PS is assymetically distributed in the cell membrane by the enzyme, aminophospholipid translocase. Following energy impairment, PS distributes to the outer cell leaflet and annexin binding illustrates cells with PS on the outside of the cell.\nChemical disruption of the C1-C2 spinal neurons alters the effects of stimulation of the cardiac afferent input on the regulation of information processing in the cervical and thoracic spinal cord. In order to produce chemical disruption of cells, ibotenic acid was chosen because it is an excitotoxin that has been used effectively in previous studies. Ibotenic acid is a structurally rigid glutamate analog that destroys neuronal perikarya, but spares axons and non-neuronal cells. After ibotenic acid is injected into a nucleus or applied to the surface of the spinal cord, the cells in the region are initially excited and then enter a phase of depolarization block. […]"}}}
{"compound": "N[C@H](C(=O)O)c1cc(=O)[nH]o1", "note": "[ibotenic acid]", "values": [{"measurement": "inhibitory effects to vagal stimulation", "setting": "[1]", "result": "eliminated"}, {"measurement": "annexin staining of cells", "setting": "[2]", "result": "many annexin positive"}]}
